{"source": "patent US8067542B1", "about": "(priority 2003, dated 2011)", "key": {"Fusarium graminearum [1]": {"system": "Fusarium graminearum", "type": "cell-based"}, "Verticillium dahliae [2]": {"system": "Verticillium dahliae", "type": "cell-based"}, "Verticillium dahliae [3]": {"system": "Verticillium dahliae", "details": "plants expressing AlfAFP; cited from earlier work"}, "Fusarium graminearum [4]": {"system": "Fusarium graminearum", "details": "cited from earlier work"}, "[5]": {"details": "High Ionic Strength Media (50 mM K+, 1 mM Ca2+)"}}, "note": "Where two headings read alike, the source gives them in different places.", "data": [{"substance": "Alf3: AlfAFP variant: AsnTyr inserted between C33 and R34 (RTCENLADKYRGPCFSGCDTHCTTKENAVSGRCNYRDDFRCWCTKRC; listed as Medicago sativa)", "values": [{"measurement": "minimun concentration of protein required to inhibit fungal growth", "setting": "Fusarium graminearum [1]; [5]", "result": ">>>20 ppm"}, {"measurement": "minimun concentration of protein required to inhibit fungal growth", "setting": "Fusarium graminearum [1]; Standard Media", "result": 20, "unit": "ppm"}]}, {"substance": "Alf - wt: native alfalfa antifungal protein (plant defensin from Medicago sativa seeds), SEQ ID NO:2 (RTCENLADKYRGPCFSGCDTHCTTKENAVSGRCRDDFRCWCTKRC; listed as Medicago sativa)", "values": [{"measurement": "minimun concentration of protein required to inhibit fungal growth", "setting": "Fusarium graminearum [1]; [5]", "result": "15-20 ppm"}, {"measurement": "minimun concentration of protein required to inhibit fungal growth", "setting": "Fusarium graminearum [1]; Standard Media", "result": 10, "unit": "ppm"}, {"measurement": "minimum concentration of protein required to inhibit fungal growth", "setting": "Verticillium dahliae [2]; [5]", "result": 15, "unit": "ppm"}, {"measurement": "minimum concentration of protein required to inhibit fungal growth", "setting": "Verticillium dahliae [2]; Standard Media", "result": 5, "unit": "ppm"}, {"measurement": "agronomic effect on potato tuber size", "setting": "Verticillium dahliae [3]", "result": "reduction in potato tuber size"}, {"measurement": "protection of plants infected with Fusarium head blight", "setting": "Fusarium graminearum [4]", "result": "unable to provide an adequate level of protection"}]}]}
